Measured values as given in ChEMBL document CHEMBL1201862, “PubChem BioAssay data set” (2004).
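Five concentrations, 48 hours, 96-well plates. GI50 marks 50% less growth.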 Calls of active or inactive are those of the source. Cut-off read from the data, not from the text of the source: active = GI50 up to about 1.1 µM and inactive = higher.

Tests used:
Assay in all cases: NCI-60 cell line screen, 48 h
NCI-H23 = system: NCI-H23
SF-268 = system: SF-268
SNB-19 = system: SNB-19
DMS-114 = system: DMS-114
RXF 631 = system: RXF 631
HL-60 = system: HL-60
SNB-75 = system: SNB-75
CCRF-CEM = system: CCRF-CEM
786-0 = system: 786-0
HT-29 = system: HT-29
HOP-92 = system: HOP-92
SN12C = system: SN12C
RPMI-8226 = system: RPMI-8226
A549 = system: A549
MOLT-4 = system: MOLT-4
HOP-62 = system: HOP-62
UACC-62 = system: UACC-62
SW-620 = system: SW-620
OVCAR-4 = system: OVCAR-4
OVCAR-5 = system: OVCAR-5
SF-295 = system: SF-295
SF-539 = system: SF-539
CAKI-1 = system: CAKI-1
M14 = system: M14
U-251 = system: U-251
KM12 = system: KM12
IGROV-1 = system: IGROV-1
HCT-116 = system: HCT-116
SR = system: SR
RXF 393 = system: RXF 393
OVCAR-3 = system: OVCAR-3
Malme-3M = system: Malme-3M
NCI-H226 = system: NCI-H226
EKVX = system: EKVX
DMS-273 = system: DMS-273
HOP-18 = system: HOP-18
SK-OV-3 = system: SK-OV-3
SK-MEL-28 = system: SK-MEL-28
LOX IMVI = system: LOX IMVI
LXFL 529 = system: LXFL 529
TK-10 = system: TK-10
K562 = system: K562
NCI-H522 = system: NCI-H522
XF498 = system: XF498
UACC-257 = system: UACC-257
SK-MEL-2 = system: SK-MEL-2
ACHN = system: ACHN
DLD-1 = system: DLD-1
UO-31 = system: UO-31
SK-MEL-5 = system: SK-MEL-5
M19-MEL = system: M19-MEL
NCI-H460 = system: NCI-H460
SNB-78 = system: SNB-78
A498 = system: A498
COLO 205 = system: COLO 205
OVCAR-8 = system: OVCAR-8

Measured: GI50

CCCCCCCCCCC(O)CCCCCCC(=O)O (stereo unspecified)
inactive: NCI-H23 35 µM | SF-268 77.4 µM | SNB-19 48.8 µM | DMS-114 23.1 µM | RXF 631 19.1 µM | HL-60 8.05 µM | SNB-75 42.5 µM | CCRF-CEM 27.5 µM | 786-0 24.5 µM | HT-29 19.9 µM | HOP-92 18.1 µM | SN12C 21.1 µM | RPMI-8226 10.2 µM | A549 18.2 µM | MOLT-4 12.7 µM | HOP-62 35.9 µM | UACC-62 19.8 µM | SW-620 29.9 µM | OVCAR-4 39.1 µM | OVCAR-5 29.4 µM | SF-295 27.1 µM | SF-539 24.3 µM | CAKI-1 36.3 µM | M14 19.1 µM | U-251 14.9 µM | KM12 16.3 µM | IGROV-1 18.2 µM | HCT-116 17.2 µM | SR 15.1 µM | RXF 393 34.1 µM | OVCAR-3 19.9 µM | Malme-3M 26.2 µM | NCI-H226 52 µM | EKVX 31.7 µM | DMS-273 22.4 µM | HOP-18 27.9 µM | SK-OV-3 78.3 µM | SK-MEL-28 45.8 µM | LOX IMVI 15.8 µM | LXFL 529 23.4 µM | TK-10 65.9 µM | K562 13.2 µM | NCI-H522 24.5 µM | XF498 29.8 µM | UACC-257 69.3 µM | SK-MEL-2 47.9 µM | ACHN 22.5 µM | DLD-1 19.3 µM | UO-31 29.9 µM | SK-MEL-5 16 µM | M19-MEL 35.6 µM | NCI-H460 16.3 µM | SNB-78 > 100 µM | A498 23.2 µM | COLO 205 15.7 µM | OVCAR-8 16.2 µM
